Our source for the Ki values is ChEMBL document CHEMBL1135016, “Inhibition of amine oxidases activity by 1-acetyl-3,5-diphenyl-4,5-dihydro-(1H)-pyrazole derivatives” (Bioorg Med Chem Lett, 2002).

The target of test [1] is T1, Amine oxidase [flavin-containing] A (Bos taurus, UniProt P21398).
T1 sequence (P21398 whole entry): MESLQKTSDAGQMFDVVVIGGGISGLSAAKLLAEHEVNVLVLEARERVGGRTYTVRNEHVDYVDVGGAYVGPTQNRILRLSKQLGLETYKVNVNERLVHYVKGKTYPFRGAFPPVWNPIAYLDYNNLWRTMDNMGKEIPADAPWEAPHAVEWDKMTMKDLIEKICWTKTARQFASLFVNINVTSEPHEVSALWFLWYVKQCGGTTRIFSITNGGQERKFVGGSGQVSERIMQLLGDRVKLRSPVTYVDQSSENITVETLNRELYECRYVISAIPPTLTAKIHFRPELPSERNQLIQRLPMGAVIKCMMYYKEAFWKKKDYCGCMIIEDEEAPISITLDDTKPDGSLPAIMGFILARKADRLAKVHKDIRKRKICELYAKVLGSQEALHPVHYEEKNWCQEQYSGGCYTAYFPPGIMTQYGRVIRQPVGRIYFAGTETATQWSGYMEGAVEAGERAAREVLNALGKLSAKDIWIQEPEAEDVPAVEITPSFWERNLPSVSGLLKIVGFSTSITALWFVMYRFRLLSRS
The test is described as follows: Inhibiting activity of the compound was determined against bovine Monoamine oxidase A.

Another test addresses T2, Monoamine oxidase (Bos taurus, UniProt P56560+P21398).
T2 sequence (P56560 whole entry): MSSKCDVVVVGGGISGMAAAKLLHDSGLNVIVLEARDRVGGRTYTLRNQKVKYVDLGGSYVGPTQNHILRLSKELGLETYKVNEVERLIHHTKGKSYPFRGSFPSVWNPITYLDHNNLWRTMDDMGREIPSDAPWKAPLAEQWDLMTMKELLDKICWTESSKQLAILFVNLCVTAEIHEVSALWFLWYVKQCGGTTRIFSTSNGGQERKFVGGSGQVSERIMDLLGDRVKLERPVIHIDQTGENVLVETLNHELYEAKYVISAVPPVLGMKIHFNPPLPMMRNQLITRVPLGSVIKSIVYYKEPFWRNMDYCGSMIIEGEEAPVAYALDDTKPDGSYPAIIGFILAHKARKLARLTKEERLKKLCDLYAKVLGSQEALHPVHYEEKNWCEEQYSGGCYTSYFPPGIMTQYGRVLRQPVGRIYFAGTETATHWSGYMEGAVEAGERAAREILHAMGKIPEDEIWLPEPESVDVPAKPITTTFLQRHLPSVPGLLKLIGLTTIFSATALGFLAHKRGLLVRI
T2 sequence (P21398 whole entry): T1 sequence (P21398 whole entry)
The experiment in a line: Inhibitory activity against Monoamine oxidase from Bovine brain mitochondria.

Test [2] concerns the target T3, Amine oxidase [flavin-containing] B (Homo sapiens, UniProt P27338).
T3 sequence (P27338 whole entry): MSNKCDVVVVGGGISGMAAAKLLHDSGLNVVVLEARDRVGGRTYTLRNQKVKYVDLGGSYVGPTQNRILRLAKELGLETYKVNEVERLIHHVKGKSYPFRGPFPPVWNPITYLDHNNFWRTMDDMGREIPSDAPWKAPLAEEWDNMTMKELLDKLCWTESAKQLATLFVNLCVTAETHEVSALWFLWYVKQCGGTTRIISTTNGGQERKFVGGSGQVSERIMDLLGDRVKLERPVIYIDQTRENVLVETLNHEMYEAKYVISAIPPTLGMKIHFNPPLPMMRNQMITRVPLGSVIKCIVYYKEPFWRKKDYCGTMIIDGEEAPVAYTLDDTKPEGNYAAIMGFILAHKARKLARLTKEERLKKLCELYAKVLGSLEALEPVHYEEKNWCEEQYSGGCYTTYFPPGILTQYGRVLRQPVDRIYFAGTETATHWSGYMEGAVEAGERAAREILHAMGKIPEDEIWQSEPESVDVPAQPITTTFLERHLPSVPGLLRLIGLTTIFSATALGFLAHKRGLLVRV
The test is described as follows: Inhibiting activity of the compound was determined against human Monoamine oxidase B.

Test [3] is described as follows: Inhibitory activity against Serum amine oxidase.
Test [4] can be described thus: Inhibitory activity against Serum amine oxidase; No inhibition, corresponding to value >10e-4.
Test [5] can be described thus: Inhibitory activity against Swine kidney diamine oxidase (SKDAO); No inhibition, corresponding to value >10e-4.

The term Ki denotes the equilibrium dissociation constant of an inhibitor or competing ligand from its target.

Each structure is given as a SMILES string.

Regarding `CC(=O)N1N=C(c2ccc(O)cc2O)CC1c1cccc(C)c1` (stereo unspecified), the Ki was 13 nM in test [1], 0.05 µM on Monoamine oxidase, 38 nM in test [2] and 10 µM in test [3].

As to `CC(=O)N1N=C(c2ccccc2O)CC1c1ccccc1C` (stereo unspecified), the inhibitory constant (Ki) came to 300 µM on Monoamine oxidase and 57 µM in test [3].

As to `CC(=O)N1N=C(c2ccccc2O)CC1c1cccc(C)c1` (stereo unspecified), on Monoamine oxidase, the Ki stood at 5.5 µM.

For the compound `CC(=O)N1N=C(c2ccccc2)CC1c1cccc(C)c1` (stereo unspecified), the inhibition constant (Ki) is 200 µM at Monoamine oxidase, “No inhibition” in test [4] and “No inhibition” in test [5].

Consider `CC(=O)N1N=C(c2ccc(O)cc2O)CC1c1ccccc1C` (stereo unspecified), for which the values for the Ki (in test [1]; at Monoamine oxidase; in test [2]) were 52 nM, 0.08 µM and 30 nM, respectively.

Consider `CC(=O)N1N=C(c2ccccc2)CC1c1ccc(Cl)cc1` (stereo unspecified), for which the Ki at Monoamine oxidase was 6 µM; in test [4] it was “No inhibition”; in test [5], “No inhibition”.
